The values that follow come from patent publication US8703815B2, “Small molecules that covalently modify transthyretin” (The Scripps Research Institute, priority 2009, dated 2014).

Structures are written as SMILES.

Series [1] is described as follows: Photoisomerization upon irradiation (312 nm, 10 seconds). The class given is physicochemical. The protocol:
Although TTR can bind to small molecules composed of two aromatic rings when the tethered rings are up to 40° out of plane {based on TTR-stilbene crystal structures [Klabunde et al., Nat. Struct. Biol. 2000, 7, 312-321; Connelly et al., Curr. Opin. Struc. Biol. 2010, 20, 54-62; Johnson et al., J. Med. Chem. 2008, 51, 6348-6358; Choi et al., J. Am. Chem. Soc. 2010, 132, 1359-1370; Choi et al., Nat. Chem. Biol. 2010, 6, 133-139; Baures et al., Bioorg. Med. Chem. 1998, 6, 1389-1401; and Baures et al., Bioorg. Med. Chem. 1999, 7, 1339-1347]}, it would be energetically unfavorable to bind the excited singlet state in a conformation where the two aryl rings are oriented perpendicular to one another. Thus, we propose that the increase in fluorescence quantum yield of B2 from 0.09 in buffer to 0.55 in complex with TTR results from the resculpted excited singlet state energy surface of the stilbene in complex with TTR, such that the trans-conformer is the only state of relatively low potential energy [Gorner, H.; Kuhn, H. J. Adv, Photochem. 1995, 19, 1-117; Malkin et al., J. Phys. Chem. 1964, 68, 1153-1163; Saltiel, J. J. Am. Chem. Soc. 1967, 89, 1036-1037; Saltiel et al., J. Am. Chem. Soc. 1972, 94, 6445-6457; Saltiel et al., J. Am. Chem. Soc. 1979, 101, 2982-2996; and Saltiel et al., J. Am. Chem. Soc. 1968, 90, 4759-4760] inhibiting photoisomerization-based relaxation of B2. That B2 binding to TTR inhibits B2 photoisomerization is consistent with the observation that the irradiation of B2 in buffer (Life Technologies, TFX-35M, 312 nm) for 10 seconds affords 60% of the cis isomer, along with other minor photoreaction products, whereas irradiation of B2 bound to TTR yields only 20% cis isomer.
It appears that the increase in fluorescence quantum yield of A2 from 0.00 in buffer to 0.27 in the TTR-(stilbene)n≦2 conjugate is only partly explained by the mechanism proposed for B2 [Gorner, H.; Kuhn, H. J. Adv, Photochem. 1995, 19, 1-117; Malkin et al., J. Phys. Chem. 1964, 68, 1153-1163; Saltiel, J. J. Am. Chem. Soc. 1967, 89, 1036-1037; Saltiel et al., J. Am. Chem. Soc. […]

The test system of series [2] is WT-TTR cytotoxicity in human IMR-32 neuroblastoma cells. Nature of the series: Inhibition of WT-TTR cytotoxicity in IMR-32 cells (resazurin reduction). The class given is cell-based. To be noted: WT-TTR 8 μM, compounds 2, 4, 6 and 8 μM, 24 hours. The protocol: Cell viability was measured after 24 hours by a resazurin reduction assay.
The human neuroblastoma IMR-32 cell line (CCL-127 ATCC) was maintained in Opti-MEM® medium (Invitrogen), supplemented with 5% FBS, 1 mM Hepes buffer, 2 mM L-glutamine, 100 units/mL penicillin, 100 μg/mL streptomycin and 0.05 mg/mL CaCl2 (complete cell medium). Cells were seeded in black wall, clear bottom, tissue culture treated 96-well plates (Costar) at a density of 6,000 cells/well in complete cell medium and incubated overnight (about 18 hours) at 37° C.
Recombinant WT-TTR purified in the cold was used as the cytotoxic insult. The protein was buffer-exchanged in Hanks' Balanced Salt Solution (HBSS, Mediatech, Manassas, Va.) at 10° C. using a Centriprep® filter device (10 kDa MWCO, Millipore). Compounds (16 mM in DMSO) were diluted 1:1000 with WT-TTR (16 μM in HBSS, filter sterilized) or with HBSS only, vortexed and incubated for 18 hours at 37° C. WT-TTR (16 μM in HBSS) containing the same amount of DMSO was prepared in parallel and incubated under the same conditions.
The medium was removed from the cells and replaced immediately by the TTR/compound mixtures or HBSS previously diluted 1:1 in Opti-MEM® supplemented with 0.8 mg/mL BSA, 2 mM Hepes buffer, 4 mM L-glutamine, 200 units/mL penicillin, 200 μg/mL streptomycin and 0.1 mg/mL CaCl2. The cells were incubated 24 hours at 37° C. Cell viability was evaluated by a resazurin reduction assay.
Briefly, 10 μL of resazurin (500 μM, PBS) was added to each well and fluorescence quantified in a plate reader (Ex/Em 530/590 nm, Tecan Safire 2, Austria) after 1 hour of incubation at 37° C. Cell viability was calculated as percentage of fluorescence relative to cells treated only with vehicle (100% viability) after subtraction of blank fluorescence (wells without cells). Averages and standard errors from 2 independently performed studies, each performed at least in triplicate, were calculated using GraphPrism (San Diego, Calif., US).
For orientation: The colour change of resazurin is a common sign of viable cells or microbes.

For the compound `Cc1cc(/C=C/c2cc(C(=O)Sc3ccc(F)cc3)cc(N(C)C)c2)cc(C)c1O` [Compound A2, (E)-S-4-fluorophenyl 3-(dimethylamino)-5-(4-hydroxy-3,5-dimethylstyryl)-benzothioate], the “photoisomerization upon irradiation in buffer (in words)” value in series [1] is on record as “does not readily form the cis isomer”.
As for `Cc1cc(/C=C/c2cccc(C(=O)Oc3ccc(F)cc3)c2)cc(C)c1O` [Compound 4, (E)-4-fluorophenyl 3-(4-hydroxy-3,5-dimethylstyryl)benzoate], the “inhibition of WT-TTR cytotoxicity to IMR-32 cells (in words)” value in series [2] was “clearly and dose-dependently inhibits IMR-32 cytotoxicity”.
On the same count and under the same terms, next, `Cc1cc(/C=C/c2cccc(C(=O)Sc3ccccc3)c2)cc(C)c1O` [Compound 2, (E)-S-phenyl 3-(4-hydroxy-3,5-dimethylstyryl)benzothioate]: “clearly and dose-dependently inhibits IMR-32 cytotoxicity”.
